One assay has as its system β-catenin. Briefly: Western blot of β-catenin in HaCaT keratinocytes. Type of assay: cell-based. The following applies: for expression level / activity of β-catenin: peptide 5 hr, Western blot (FIG. 5a); for β-catenin expression / activity in the presence of DKK-1: with DKK-1 (WNT inhibitor), Western blot (FIG. 5b). The procedure:
(§1) HaCaT kerationcytes cultured for 48 hr were incubated with the peptides synthesized in preparation Example 1 for 5 hr. The phosphorylation level of LRP5, which is the receptor of WNT protein and expression level of β-catenin, which is the signal molecule of WNT protein were examined respectively. The amount of Phopho-LRP5 and β-catenin were measured by Western blot analysis using an antibody against Phopho-LRP5 (Cell signaling) and β-catenin (SantaCruz, USA). In addition, the expression level of LEF-1 transcription factor was also observed, which is enhanced by β-catenin. […] First of all, it was shown that β-catenin activity is observed by treatment with the peptide of the present invention in spite of the presence of DKK-1 as a WNT inhibitor and a β-catenin signaling inhibitor (FIG. 5b). It was also observed that the expression level of LEF-1 transcription factor was increased by the treatment of the present peptides (FIG. 6).
A general note: In western blotting, separated proteins are transferred to a membrane and probed.

The next assay relates to fibronectin. Kind of assay: Fibronectin ELISA in NIH3T3 fibroblasts. Type of assay: cell-based. The following applies: for fibronectin expression with the lapse of time: NIH3T3, peptide 1 μg/ml, 3, 10, 24 or 48 hr, ELISA (FIG. 7a); for fibronectin expression in the presence of DKK-1: NIH3T3, treated with both DKK-1 protein and peptide, ELISA (FIG. 7b). On the procedure:
To verify whether the peptides synthesized in preparation Example 1 enhances the expression of fibronectin as a WNT target protein, NIH3T3 fibroblasts (4×10^3 cells) was added to each well of 96-well plates and cultured under 5% CO2 for 24 hr at 37° C. After 24-hr culture, the medium was changed with a fresh medium without serum and cells were treated with empty sample (for normalization), three peptides synthesized (1 μg/ml) and peptide complex (1 μg/ml) aseptically dissolved in 10% DMSO for 3 hr, 10 hr, 24 hr or 48 hr under the same conditions as described above. After 72 hr incubation, the cell culture was collected and the expression level of fibronectin was measured using Fibronectin ELISA kit (R&D systems, USA).
In addition, after DKK-1 protein was treated and cultured under the same conditions, the expression level of fibronectin was examined.
For orientation: ELISA stands for enzyme-linked immunosorbent assay.

The subject of assay [1] is HHFDPC hair follicle cells. Kind of assay: SRB colorimetric cell growth assay, hair follicle cells. Format: cell-based. The following applies: 72 hr; for growth of cells in hair follicles, microscope image: observed under a microscope (FIG. 3c); for effect on the growth of cells in hair follicles: peptide 1 ng/ml-10 μg/ml, SRB absorbance at 590 nm (FIG. 2c). The procedure: (§2) HaCaT ketatinocytes, NIH3T3 fibroblasts, and HHFDPC hair follicle cells (cell science) were cultured in 250 ml-flasks containing DMEM (Dulbecco's Modified Eagle's minimal essential media; Gibco, USA) supplemented with 10% FBS (fetal bovine serum; Sigma). Cells cultured were treated with 1% trypsin solution to detach cells from the bottom of culture flasks and centrifuged to collect cell pellets. After cells were resuspended in DMEM not containing FBS, its aliquot (3×10^3 cells) was added to each well of 96-well plates and cultured under 5% CO2 for 24 hr at 37° C. After 24-hr culture, the medium was changed with a fresh medium without serum and cells were incubated with empty sample (for normalization) and peptides synthesized (1 ng/ml, 10 ng/ml, 100 ng/ml, 1 μg/ml and 10 μg/ml) aseptically dissolved in 10% DMSO for 72 hr under the same conditions as described above. After removing supernatants, cells were fixed with ethanol and then washed three times using PBS (phosphate buffered saline), followed by incubation with SRB solution. Cells were sufficiently washed with 1% acetic acid and observed under a microscope to find living cell condition. In addition, absorbance at 590 nm was measured to analyze cell viability. Meanwhile, after culturing under the same conditions, the tissue was immunostained by an immunohistochemical assay with ki-67 antibody (SantaCruz, USA) and the amount of ki-67 protein as a cell proliferation marker was observed.

For the next assay, the system named is LRP5. Kind of assay: Western blot of Phospho-LRP5 in HaCaT keratinocytes. Format: cell-based. The following applies: peptide 5 hr, Western blot (FIG. 4). On the procedure: as §1
For a further assay, the system named is NIH3T3 fibroblasts. Briefly: SRB colorimetric cell growth assay, fibroblasts. Type of assay: cell-based. The following applies: for growth of fibroblasts, microscope image: NIH3T3, 72 hr, observed under a microscope (FIG. 3b); for effect on the growth of fibroblasts: NIH3T3, peptide 1 ng/ml-10 μg/ml, 72 hr, SRB absorbance at 590 nm (FIG. 2b). The procedure:
(§3) In order to evaluate three peptides prepared in Preparation Examples 1-2 whether they have similar activities of growth factor, SRB (Sulforhodamine B; Sigma-Aldrich) colorimetric assay was carried out using HaCaT kerationcytes (Korean Cell Line Bank) and NIH3T3 fibroblasts (Korean Cell Line Bank) according to Rizzino et al. method (Rizzino, et al. Cancer Res., 48: 4266 (1988)).
as §2

Another assay concerns HaCaT keratinocytes. Briefly: SRB colorimetric cell growth assay, keratinocytes. Type of assay: cell-based. As to conditions: 72 hr; for growth of keratinocytes, microscope image: observed under a microscope (FIG. 3a); for effect on the growth of keratinocytes: peptide 1 ng/ml-10 μg/ml, SRB absorbance at 590 nm (FIG. 2a). The procedure:
as §3, §2

Another assay has as its system C57BL/6 mouse back skin. Kind of assay: Mouse hair growth, topical peptide nanosome. Type of assay: in vivo. The following applies: nanosome topically twice every day for 15 days (FIG. 8). On the procedure: The peptide synthesized in Preparation Example 1 was formulated into nanosome. Afterwards, the back of C57BL/6 mouse was partially removed and then the skin was topically administered with the nanosome twice every day for 15 days.
50 mg of each peptide synthesized in preparation Examples was dissolved in 500 ml of distilled water by sufficient agitation. The peptide solution was mixed with 5 g lecithin, 0.3 ml sodium oleate, 50 ml ethanol and a small amount of oils, and its volume was adjusted with distilled water to 1 L. The resulting solution was subjected to a microfluidizer under high pressure for emulsification, thereby providing nanosomes having about 100-nm size. The nanosomes were prepared to have a final concentration of about 50 ppm and used as ingredients for cosmetics.

Where no end group is shown, it is not given here.

In the case of “peptide-2: WNT-derived peptide, amino acid sequence LCCGRGHNAR (WNT-derived peptide 2)”, in the assay with β-catenin, the “expression level / activity of β-catenin” value is “enhancement” and the “β-catenin expression / activity in the presence of DKK-1” value (“β-catenin expression / activity” below) is recorded as “β-catenin expression in spite of the presence of DKK-1”. Moreover, in the assay with fibronectin, the “fibronectin expression with the lapse of time” value is listed as “gradually elevated”; the “fibronectin expression in the presence of DKK-1” value was “restored and enhanced”. Besides, in assay [1], the “growth of cells in hair follicles, microscope image” value (shortened to “growth of cells … microscope image”) is “promote the growth” and the “effect on the growth of cells in hair follicles” value (“effect on the growth of cells” below) is recorded as “stimulatory effect”. Moreover, the “phosphorylation level of LRP5” value with LRP5 is recorded as “enhancement”. In the assay on NIH3T3 fibroblasts, the “growth of fibroblasts, microscope image” value is reported as “promote the growth” and the “effect on the growth of fibroblasts” value is “stimulatory effect”. Further, in the assay with HaCaT keratinocytes, the “growth of keratinocytes, microscope image” value is “promote the growth” and the “effect on the growth of keratinocytes” value is “stimulatory effect”. In addition, in the assay on C57BL/6 mouse back skin, the “hair growth on mouse back skin” value was “activity for promoting hair growth”.
For the substance “peptide-4: WNT-derived peptide, amino acid sequence LCCGRGHNVL (WNT-derived peptide 4)”, in the assay with β-catenin, the “expression level / activity of β-catenin” value is “enhancement” and the “β-catenin expression / activity” value is reported as “β-catenin expression in spite of the presence of DKK-1”. In addition, in the assay with fibronectin, the “fibronectin expression with the lapse of time” value is on record as “gradually elevated”; the “fibronectin expression in the presence of DKK-1” value was “restored and enhanced”. Also, in assay [1], the “growth of cells … microscope image” value is given as “promote the growth” and the “effect on the growth of cells” value was “stimulatory effect”. For the same substance, in the assay with LRP5, the “phosphorylation level of LRP5” value is on record as “enhancement”. Also, in the assay on NIH3T3 fibroblasts, the “growth of fibroblasts, microscope image” value is “promote the growth” and the “effect on the growth of fibroblasts” value is “stimulatory effect”. For the same substance, in the assay with HaCaT keratinocytes, the “growth of keratinocytes, microscope image” value is “promote the growth” and the “effect on the growth of keratinocytes” value is given as “stimulatory effect”. Also, the “hair growth on mouse back skin” value in the assay on C57BL/6 mouse back skin is given as “activity for promoting hair growth”.
Regarding “LCCGRGHRTRTQR (cysteine pairing not given here) [peptide-1]”, in the assay with β-catenin, the “expression level / activity of β-catenin” value was “enhancement” and the “β-catenin expression / activity” value is reported as “β-catenin expression in spite of the presence of DKK-1”. In the assay with fibronectin, the “fibronectin expression with the lapse of time” value is on record as “gradually elevated”; the “fibronectin expression in the presence of DKK-1” value is “restored and enhanced”. Also, in assay [1], the “growth of cells … microscope image” value is recorded as “promote the growth” and the “effect on the growth of cells” value was “stimulatory effect”. Also, the “phosphorylation level of LRP5” value in the assay with LRP5 was “enhancement”. Also, in the assay on NIH3T3 fibroblasts, the “growth of fibroblasts, microscope image” value was “promote the growth” and the “effect on the growth of fibroblasts” value was “stimulatory effect”. Also, in the assay with HaCaT keratinocytes, the “growth of keratinocytes, microscope image” value is on record as “promote the growth” and the “effect on the growth of keratinocytes” value is recorded as “stimulatory effect”. Moreover, the “hair growth on mouse back skin” value in the assay with C57BL/6 mouse back skin is “activity for promoting hair growth”.
For “peptide-3: WNT-derived peptide, amino acid sequence AERRRELCRC (WNT-derived peptide 3)”, in the assay with β-catenin, the “expression level / activity of β-catenin” value was “enhancement” and the “β-catenin expression / activity” value is “β-catenin expression in spite of the presence of DKK-1”. Besides, in the assay on fibronectin, the “fibronectin expression with the lapse of time” value is “gradually elevated”; the “fibronectin expression in the presence of DKK-1” value was “restored and enhanced”. In assay [1], the “growth of cells … microscope image” value is listed as “promote the growth” and the “effect on the growth of cells” value is on record as “stimulatory effect”. Also, the “phosphorylation level of LRP5” value in the assay with LRP5 is reported as “enhancement”. Moreover, in the assay on NIH3T3 fibroblasts, the “growth of fibroblasts, microscope image” value is given as “promote the growth” and the “effect on the growth of fibroblasts” value is on record as “stimulatory effect”. In the assay on HaCaT keratinocytes, the “growth of keratinocytes, microscope image” value is listed as “promote the growth” and the “effect on the growth of keratinocytes” value was “stimulatory effect”. The “hair growth on mouse back skin” value in the assay with C57BL/6 mouse back skin is given as “activity for promoting hair growth”.

(Values after patent US9295629B2, “WNT family-derived peptides and use thereof” (CAREGEN CO., LTD., priority 2011, dated 2016).)
